The results in this text go back to patent US12214076B2, “Drug delivery vehicles for atherosclerosis nanomedicine” (Northwestern University, priority 2019, dated 2025).

Peptide text beside a SMILES is read from it.

The subject of data set [1] is J774.2 murine macrophages. The data set is classed as cell-based, mouse. As for the experimental part: To measure cell metabolic activity, thiazolyl blue tetrazolium bromide (MTT, Sigma-Aldrich) was added to cells at 0.4 mg/mL in complete medium for 4 hours at 37° C. The plates were then aspirated and 100 µL of DMSO added for 10-15 minutes at room temperature on a plate shaker at low speed setting. The plates were run on an Epoch plate reader using absorbance at 560 nm corrected for background at 670 nm. Flow cytometry analysis for iNOS expression followed the methods described above.

The target in another data set is T1, human recombinant MMP2 (Homo sapiens, UniProt P08253).
T1 construct: purchased R&D systems
T1 sequence (P08253 110-660): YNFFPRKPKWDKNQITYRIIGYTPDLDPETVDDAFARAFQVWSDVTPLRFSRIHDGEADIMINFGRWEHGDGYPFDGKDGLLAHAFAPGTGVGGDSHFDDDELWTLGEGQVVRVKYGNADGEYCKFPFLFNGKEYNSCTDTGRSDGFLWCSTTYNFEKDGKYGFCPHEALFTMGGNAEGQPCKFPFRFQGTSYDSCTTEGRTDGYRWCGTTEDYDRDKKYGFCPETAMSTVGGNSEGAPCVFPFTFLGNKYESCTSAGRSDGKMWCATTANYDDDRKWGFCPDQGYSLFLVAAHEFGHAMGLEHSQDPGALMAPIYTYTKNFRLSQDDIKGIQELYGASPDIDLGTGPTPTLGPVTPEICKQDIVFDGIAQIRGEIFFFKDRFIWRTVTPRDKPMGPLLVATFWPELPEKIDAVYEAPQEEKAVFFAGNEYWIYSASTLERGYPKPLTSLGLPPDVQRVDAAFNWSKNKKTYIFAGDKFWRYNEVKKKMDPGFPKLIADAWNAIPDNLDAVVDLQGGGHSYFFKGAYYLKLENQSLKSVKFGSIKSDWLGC
The data set can be described thus: MMP-Ac2-26 PA cleavage assay. The format is biochemical. Particulars: 40 nM MMP2, 24 hours, 37° C. As for the experimental part:
ROS-Ac2-26 and MMP-Ac2-26 PA cleavage assays: To examine ROS-mediated cleavage, 3-morpholinosydnonimine hydrochloride (SIN-1, Sigma-Aldrich or Abcam) was used. ROS-Ac2-26 PAs were reconstituted to 0.5 mM in phosphate buffer and treated with 100 μM SIN-1 for 24 hours at 37° C. For MMP2/9-mediated cleavage, human recombinant MMP2 (R&D systems, carrier-free) was used, activated with freshly prepared 1 mMp-aminophenylmercuric acetate (APMA, Sigma-Aldrich) for one hour at 37° C. The APMA disrupts the cysteine-zinc bond in MMP2 responsible for enzyme latency by liberation of the sulfhydryl group. 10% MMP-Ac2-26 PA co-assemblies were prepared at 0.5 mM in a cleavage buffer containing 50 mM tricine, 50 mM NaCl, 50 μM ZnCl2, and 10 mM CaCl2) at pH 7.4, and treated with 40 nM human recombinant MMP2 for 24 hours at 37° C. At the end of each time point, the samples were stored at −20° C., effectively stopping the cleavage reactions. Samples were analyzed at room temperature, 0.04-0.3 mg/mL with 0.1% NH4OH using a ThermoFisher Q Exactive HIF-X (ThermoFisher, Bremen, Germany) mass spectrometer coupled with a Waters Acquity H-class liquid chromatograph system. […] All measurements were recorded at a resolution setting of 120,000. […] Injection volume for all samples was […]. Data was analyzed on Xcalibur (ThermoFisher, Breman, Germany).

In the case of `CC[C@H](C)[C@H](NC(=O)[C@H](Cc1ccccc1)NC(=O)[C@H](Cc1c[nH]c2ccccc12)NC(=O)[C@H](C)NC(=O)[C@H](CCC(N)=O)NC(=O)[C@H](CCCCN)NC(=O)[C@H](CC(C)C)NC(=O)[C@H](Cc1ccccc1)NC(=O)[C@H](CCC(=O)O)NC(=O)[C@H](CO)NC(=O)[C@@H](NC(=O)[C@H](CCSC)NC(=O)[C@H](C)NC(C)=O)C(C)C)C(=O)N[C@@H](CCC(=O)O)C(=O)N[C@@H](CC(N)=O)C(=O)N[C@@H](CCC(=O)O)C(=O)N[C@@H](CCC(=O)O)C(=O)N[C@@H](CCC(N)=O)C(=O)N[C@@H](CCC(=O)O)C(=O)N[C@@H](Cc1ccc(O)cc1)C(=O)N[C@H](C(=O)N[C@@H](CCC(N)=O)C(=O)N[C@H](C(=O)N[C@H](C(=O)N[C@@H](CCCCN)C(=O)O)C(C)C)[C@@H](C)O)C(C)C` [Ac2-26] (Ac-AMVSEFLKQAWFIENEEQEYVQTVK-OH; N-terminus and C-terminus assumed), in data set [1], the “cellular metabolism (MTT) in comparison to the stimulated control” value was “did not significantly affect cellular metabolism”.

As for “C16-V2A2 (SEQ ID NO: 8)-E2-GGGPQGIWGQGK (SEQ ID NO: 1)-AMVSEFLKQAWFIENEEQEYVQTVK (SEQ ID NO: 7)-NH2 (C16-VVAAEEGGGPQGIWGQGKAMVSEFLKQAWFIENEEQEYVQTVK-NH2) [MMP-Ac2-26 PA]”, the “Ac2-26 release from PA nanofibers” value with human recombinant MMP2 is reported as “released Ac2-26”.
